Data as given in patent publication US9884801B2, “Compounds from antrodia camphorata, method for preparing the same and use thereof” (ONENESS BIOTECH CO.,LTD., priority 2014, dated 2018).
≈ marks a conversion by molar mass, not a printed value. Where two headings read alike, the source gives them in different places.

Key:
Format in all cases: cell-based
PC3 (Prostate) = experiment: SRB anti-proliferation assay, PC3; conditions: PC3, 48 hours
Procedure: (§1) Various cell lines (5×10^3 cells/well) were sub-cultured onto 96-well plates and starved with serum-free medium for 48 h. Then cells were incubated in medium with 10% FBS in the absence or presence of various concentrations of AC006, AC007, AC009, and AC012 (0.1, 0.3, 1, 3, 10, and 30 μg/ml) for 48 hours. After treatment, the medium was discarded firstly. […]. In order to fix the adherent cells, 100 μl of trichloroacetic acid (10% (w/v)) were adding to each well and incubating at 4° C. for 1 hour. Then the plates were then washed with deionized water and dried in the air. Each well were added with 50 μl of Sulforhodamine B (SRB) solution (0.4% w/v in 1% acetic acid) and incubated for 5 min at room temperature. To remove unbound SRB in the plates, the plates were washed with 1% acetic acid and then air dried. The residual bound SRB was solubilized with 100 μl of 10 mM Tris base buffer (pH 10.5), and then read using a micro titer plate reader at 495 nm.

Huh-7 (Liver) = experiment: SRB anti-proliferation assay, Huh-7; conditions: Homo sapiens; for IC50: Huh-7, 48 hours; for inhibition at 0.3 µg/mL: Huh-7, in 0.3 μg/ml
Procedure: as §1

LN-229 (Brain, Glioma) = experiment: SRB anti-proliferation assay, LN-229; conditions: Homo sapiens; for IC50: LN-229, 48 hours
Procedure: as §1

Sk-Hep-1 (Liver) = experiment: SRB anti-proliferation assay, Sk-Hep-1; conditions: Homo sapiens, SK-HEP1; Sk-Hep-1, 48 hours
Procedure: as §1

U251 (Brain, Glioma) = experiment: SRB anti-proliferation assay, U251; conditions: Homo sapiens, U-251; for IC50: U251, 48 hours
Procedure: as §1

A549 (Lung) = experiment: SRB anti-proliferation assay, A549; conditions: Homo sapiens; for IC50: A549, 48 hours; for inhibition at 10 µg/mL: A549, in 10 μg/ml
Procedure: as §1

U87 (Brain, Glioma) = experiment: SRB anti-proliferation assay, U87; conditions: for IC50: U87, 48 hours
Procedure: as §1

B16F10 (Melanoma) = experiment: SRB anti-proliferation assay, B16F10; conditions: Mus musculus, B16-F10; B16F10, 48 hours
Procedure: as §1

HCT-116 (Colon rectal) = experiment: SRB anti-proliferation assay, HCT-116; conditions: Homo sapiens; for IC50: HCT-116, 48 hours; for inhibition at 0.3 µg/mL: HCT-116, in 0.3 μg/ml
Procedure: as §1

DLD-1 (Colorectal) = experiment: SRB anti-proliferation assay, DLD-1; conditions: for inhibition at 10 µg/mL: DLD-1, in 10 μg/ml
Procedure: as §1

RKO (Colorectal) = experiment: SRB anti-proliferation assay, RKO; conditions: for inhibition at 10 µg/mL: in 10 μg/ml
Procedure: as §1

SW-480 (Colon rectal) = experiment: SRB anti-proliferation assay, SW-480; conditions: for IC50: SW-480, 48 hours; for inhibition at 10 µg/mL: SW480, SW-480, in 10 μg/ml
Procedure: as §1

4T-1 (Breast) = experiment: SRB anti-proliferation assay, 4T-1; conditions: 4T-1, 48 hours
Procedure: as §1

COLO205 (Colon) = experiment: SRB anti-proliferation assay, COLO205; conditions: Homo sapiens, COLO 205; COLO205, 48 hours
Procedure: as §1

HT-29 (Colon) = experiment: SRB anti-proliferation assay, HT-29; conditions: Homo sapiens; HT-29, 48 hours
Procedure: as §1

NST (Colon) = experiment: SRB anti-proliferation assay, NST
Procedure: as §1

[1] = test system: Endothelial progenitor cell (EPCs); experiment: SRB assay, EPC cell proliferation; conditions: 48 h, read-out: inhibitory concentrations of 50% EPC cell proliferation (IC50)
Procedure: as §1, with “Endothelial progenitor” for “Various”, “(EPCs, 5×10^3” for “lines (5×10^3”, “of” for “of AC006, AC007, AC009, and”, “10” for “10,”, “h.” for “hours. After treatment, the medium was discarded firstly.”

EPCs in presence of VEGF = experiment: Matrigel capillary tube formation assay; conditions: 1 μg/ml, EPC, VEGF 20 ng/ml, 16 hr; read-out: inhibit tube formation
Procedure: Matrigel was added to 15-well-plates (ibidi) in a total volume of 10 μl in each well. Plates were stood at 37° C. for 30 min to form a gel layer. After gel formation, EPCs (5×10^3 cells) treated with or without AC012 (0.1, 0.3, 1 μg/ml) in presence of VEGF (20 ng/ml) were applied to each well, and plates were incubated for at 37° C. 16 hr with 5% CO2. After incubation, the inverted contrast phase microscope (Nikon, Japan) was used for subject observation.

[2] = Homo sapiens, DLD-1, 48 h, read-out: IC50
[3] = Homo sapiens, SW480, 48 h, read-out: IC50

| SMILES | IC50 (PC3 (Prostate)) | IC50 (Huh-7 (Liver)) | IC50 (LN-229 (Brain, Glioma)) | IC50 (A549 (Lung)) | inhibition at 10 µg/mL (A549 (Lung)) | IC50 (B16F10 (Melanoma)) | IC50 (HCT-116 (Colon rectal)) | inhibition at 0.3 µg/mL (HCT-116 (Colon rectal)) | IC50 (DLD-1 (Colorectal); [2]) | inhibition at 10 µg/mL (DLD-1 (Colorectal); Homo sapiens) | inhibition at 0.3 µg/mL (Huh-7 (Liver)) | IC50 (RKO (Colorectal); 48 h, read-out: IC50) | inhibition at 10 µg/mL (RKO (Colorectal)) | IC50 (SW-480 (Colon rectal); [3]) | inhibition at 10 µg/mL (SW-480 (Colon rectal); Homo sapiens) | other results |
| --- | --- | --- | --- | --- | --- | --- | --- | --- | --- | --- | --- | --- | --- | --- | --- | --- |
| COC1=C(OC)[C@H](OC(C)=O)[C@H](C/C=C(\C)CC/C=C(\C)C[C@H](O)C=C(C)C)[C@@H](C)C1=O [AC006] | 19.7 µg/mL (≈ 43.9 µM) | 0.72 µg/mL (≈ 1.6 µM) | > 30 µg/mL | > 10 µg/mL | 12.2% | 28.7 µg/mL (≈ 64 µM) |  |  |  |  |  |  |  |  |  | inhibition at 30 µg/mL (LN-229 (Brain, Glioma); LN-229, in 30 μg/ml): 22.6%; IC50 (Sk-Hep-1 (Liver)): 26.8 µg/mL (≈ 59.7 µM); IC50 (U251 (Brain, Glioma)): > 30 µg/mL; inhibition at 30 µg/mL (U251 (Brain, Glioma); U251, in 30 μg/ml): 22.6%; IC50 (U87 (Brain, Glioma)): > 30 µg/mL; inhibition at 30 µg/mL (U87 (Brain, Glioma); U87, in 30 μg/ml): 11.3% |
| COC1=C(OC)[C@H](O)[C@H](C/C=C(\C)CC/C=C(\C)C/C=C/C(C)(C)O)[C@@H](C)C1=O [AC007-H1] |  | < 0.3 µg/mL |  | 1.69 µg/mL (≈ 4.16 µM) |  |  | < 0.3 µg/mL | 59.5% | > 10 µg/mL | 16.1% | 85.2% | > 10 µg/mL | 33% | > 10 µg/mL | 18.2% |  |
| COC1=C(OC)[C@H](OC(C)=O)[C@H](C/C=C(\C)CC/C=C(\C)C/C=C/C(C)(C)O)[C@@H](C)C1=O [AC007] | 22.1 µg/mL (≈ 49.2 µM) | 0.88 µg/mL (≈ 1.96 µM) | > 25 µg/mL | 3.57 µg/mL (≈ 7.96 µM) |  | 23.4 µg/mL (≈ 52.3 µM) | 0.93 µg/mL (≈ 2.07 µM) |  | 19.7 µg/mL (≈ 44 µM) | 25.6% |  | 17.6 µg/mL (≈ 39.2 µM) | 29.5% | > 10 µg/mL | 21.5% | IC50 (4T-1 (Breast)): 24.8 µg/mL (≈ 55.3 µM); IC50 (DLD-1 (Colorectal); DLD-1, 48 hours): > 10 µg/mL; inhibition at 25 µg/mL (LN-229 (Brain, Glioma); LN-229, in 25 μg/ml): 19.1%; IC50 (RKO (Colorectal); 48 hours): > 10 µg/mL |
| COC1=C(OC)[C@H](O)[C@H](C/C=C(\C)CC/C=C(\C)CC/C=C(\C)CO)[C@@H](C)C1=O [AC009-H1] |  | < 0.3 µg/mL |  | > 10 µg/mL | 40.8% |  | < 0.3 µg/mL | 54.4% | > 10 µg/mL | 11% | 90.6% | > 10 µg/mL | 8.79% | > 10 µg/mL | 4.01% |  |
| COC1=C(OC)[C@H](OC(C)=O)[C@H](C/C=C(\C)CC/C=C(\C)CC/C=C(\C)CO)[C@@H](C)C1=O [AC009] | 15 µg/mL (≈ 33.4 µM) | < 0.3 µg/mL | 19.5 µg/mL (≈ 43.5 µM) | 8.08 µg/mL (≈ 18 µM) |  | 22.4 µg/mL (≈ 50 µM) | 2.56 µg/mL (≈ 5.71 µM) |  | 14.6 µg/mL (≈ 32.6 µM) | 8.75% | 88.2% | 15.9 µg/mL (≈ 35.5 µM) | 33.2% | 18.6 µg/mL (≈ 41.4 µM) | 7.98% | IC50 (COLO205 (Colon)): 2.45 µg/mL (≈ 5.46 µM); IC50 (DLD-1 (Colorectal); DLD-1, 48 hours): > 10 µg/mL; IC50 (HT-29 (Colon)): 33.2 µg/mL (≈ 74.1 µM); IC50 (RKO (Colorectal); 48 hours): > 10 µg/mL; IC50 (SW-480 (Colon rectal)): > 10 µg/mL; IC50 (NST (Colon); 48 hours): > 25 µg/mL; inhibition at 25 µg/mL (NST (Colon); in 25 μg/ml): 44.4% |
| COC1=C(OC)[C@H](OC(C)=O)[C@H](C/C=C(\C)CC/C=C(\C)C/C=C/C(C)(C)O)CC1=O [AC011] |  |  |  |  |  |  | 2.43 µg/mL (≈ 5.59 µM) |  | > 10 µg/mL | 7.57% |  | > 10 µg/mL | 24.1% | > 10 µg/mL | 31.6% |  |
| COC1=C(OC)[C@H](O)[C@H](C/C=C(\C)CC/C=C(\C)CCCC(C)CO)[C@@H](C)C1=O (some centres unmarked) [AC012-H1] |  | < 0.3 µg/mL |  | 6.4 µg/mL (≈ 15.7 µM) |  |  | < 0.3 µg/mL | 52.7% | > 10 µg/mL | 11.8% | 91.2% | > 10 µg/mL | 17.5% | > 10 µg/mL | 14.8% |  |
| COC1C(=O)C(C)[C@@H](C/C=C(\C)CC/C=C(\C)CCCC(C)CO)[C@@H](O)C1(OC)OC (some centres unmarked) [AC012-H2] |  |  |  |  |  |  | > 10 µg/mL |  | > 10 µg/mL | 8.31% |  | > 10 µg/mL | 31.6% | > 10 µg/mL | 5.66% | inhibition at 10 µg/mL (HCT-116 (Colon rectal); HCT-116, in 10 μg/ml): 40.3% |
| COC1=C(OC)[C@H](OC(C)=O)[C@H](C/C=C(\C)CC/C=C(\C)CCCC(C)CO)[C@@H](C)C1=O (some centres unmarked) [AC012] | 11.4 µg/mL (≈ 25.2 µM) | < 0.3 µg/mL | 19.4 µg/mL (≈ 43.2 µM) | > 10 µg/mL | 49.5% | 9.16 µg/mL (≈ 20.3 µM) | 2.29 µg/mL (≈ 5.08 µM) |  | > 10 µg/mL | 20.2% | 78.9% | > 10 µg/mL | 34.7% | > 10 µg/mL | 9.05% | IC50 [1]: 29 µg/mL (≈ 64.4 µM); IC50 (Sk-Hep-1 (Liver)): 8.27 µg/mL (≈ 18.4 µM); IC50 (U251 (Brain, Glioma)): 22.7 µg/mL (≈ 50.4 µM); inhibition at 1 µg/mL (EPCs in presence of VEGF): 31.9%; IC50 (U87 (Brain, Glioma)): 18.6 µg/mL (≈ 41.3 µM) |
